Reference: patent US20180271987A1, “Controlled Cell Delivery Vehicle and Treatment of Tumours” (The University of Nottingham, priority 2015, published 2018)

tested on: NIH3t3: LSL-eGFP cells; experiment: Cre recombination assay (eGFP activation); type: cell-based, mouse; settings: cells pre-treated with the agent
Text: Previous studies have the avoided issues associated with direct measurement of fluorescent-tagged proteins (such as being unable to distinguish membrane, vesicle or functional cytosolic/nuclear protein) by assaying for the successful nuclear activity of Cre recombinase {Gump, 2010 #2}. This system was used to measure Cre-mediated recombination of a loxP-STOP-loxP (LSL) enhanced green fluorescent protein (eGFP) reporter gene in live NIH3t3 mouse fibroblast cells (NIH3t3: LSL-eGFP cells) as an indicator of cellular uptake (FIG. 18a). This system is rigorous as activation of green fluorescence requires exogenous Cre protein to enter the cell, undergo nuclear-translocation and excise the LSL fragment of the transgene. This must occur in live cells and be non-toxic for the subsequent expression of eGFP. […] To overcome this issue Cre proteins were delivered at limiting dilutions for a short exposure time (1 hour) and the minimum dose required to activate green fluorescence after 48 hours (FIG. 18c) was determined.
To measure Cre Recombinase activity the NIH3t3: LSL-eGFP cell line was created using the pZ/EG plasmid transfection and G-418 selection {Novak, 2000 #6}. […] 2×10^5 cells/well were plated (in 12-well plates), pre-incubated them in DMEM without serum for 1 hour and treated with Cre proteins (0-500 μg/ml) in DMEM without serum. After the Cre incubation cells were trypsinized, replated into complete media and incubated for 2 days. Cells were pre-treated with drugs for the stated time-period in DMEM without serum, were included in Cre-transduction medium and were added after replating. […] After incubations cell were trypsinized, washed, fixed in 4% PFA and % recombined cells was determined by flow cytometry. For mR-Cre-8R and P21-mR-Cre-8R comparisons concentrations of 100 μg/ml and 10 μg/ml were used, respectively and data was expressed as % maximum recombination (i.e. the % relative to the maximum recombination achieved at the stared dose of Cre).

Molecule	effect of drug or enzyme treatment on functional delivery / recombination of HETD-tagged Cre protein
N=C(N)NC(=O)c1nc(Cl)c(N)nc1N [Amiloride]	dose-dependent reduction of functional transduction into cells
C=C1[C@@H](C)[C@H]2[C@H](Cc3ccccc3)NC(=O)[C@]23[C@H](OC(C)=O)/C=C/[C@@](C)(O)C(=O)[C@@H](C)C/C=C/[C@H]3[C@@H]1O [Cytochalasin D]	dose-dependent reduction of functional transduction into cells
C[C@@H]1[C@H](O)[C@@H](C)/C=C/C=C/CC/C=C/C=C/C=C/C=C/C(O[C@H]2O[C@H](C)[C@@H](O)[C@H](N)[C@@H]2O)CC2O[C@](O)(CC(O)C(O)CCC(O)CC(O)CC(O)CC(=O)O[C@H]1C)CC(O)C2C(=O)O (stereo partly drawn) [nystatin]	dose-dependent inhibition of functional delivery
methyl-β-cyclodextrin	dose-dependent inhibition of functional delivery
heparinase III: enzyme used to deplete cell membrane GAGs (protein, UniProt Q59289 25-659, looked up) Heparin-sulfate lyase: QSSSITRKDFDHINLEYSGLEKVNKAVAAGNYDDAAKALLAYYREKSKAREPDFSNAEKPADIRQPIDKVTREMADKALVHQFQPHKGYGYFDYGKDINWQMWPVKDNEVRWQLHRVKWWQAMALVYHATGDEKYAREWVYQYSDWARKNPLGLSQDNDKFVWRPLEVSDRVQSLPPTFSLFVNSPAFTPAFLMEFLNSYHQQADYLSTHYAEQGNHRLFEAQRNLFAGVSFPEFKDSPRWRQTGISVLNTEIKKQVYADGMQFELSPIYHVAAIDIFLKAYGSAKRVNLEKEFPQSYVQTVENMIMALISISLPDYNTPMFGDSWITDKNFRMAQFASWARVFPANQAIKYFATDGKQGKAPNFLSKALSNAGFYTFRSGWDKNATVMVLKASPPGEFHAQPDNGTFELFIKGRNFTPDAGVFVYSGDEAIMKLRNWYRQTRIHSTLTLDNQNMVITKARQNKWETGNNLDVLTYTNPSYPNLDHQRSVLFINKKYFLVIDRAIGEATGNLGVHWQLKEDSNPVFDKTKNRVYTTYRDGNNLMIQSLNADRTSLNEEEGKVSYVYNKELKRPAFVFEKPKKNAGTQNFVSIVYPYDGQKAPEISIRENKGNDFEKGKLNLTLTINGKQQLVLVP	reduced recombination to basal-levels

tested on: cells; experiment: not given; settings: literature; cited from earlier work

Molecule	increase of nanoparticle uptake [%]
Arg-Gly-Asp [RGD]	50
